Laboratory results reported in patent US8841316B2, “Multicomponent crystalline system of rosuvastatin calcium salt and vanillin” (BASF SE, priority 2011, dated 2014).

Assay: Water vapor sorption (water content under humidity)
Format: physicochemical

Water vapor sorption: water content after 2 h at 50% r.h. (after 2 h at 50% r.h.): 6.2% | Water vapor sorption: water content after 5 h at 95% r.h. (after 5 h at 95% r.h.): 10.1%
Substance: bis[(E)-7-[4-(4-fluorophenyl)-6-isopropyl-2-[methyl(methylsulfonyl)amino]pyrimidin-5-yl](3R,5S)-3,5-dihydroxyhept-6-enoic acid] calcium salt [Crystal form A]
